Results taken from patent publication US20090170862A1, “USE OF C-KIT INHIBITORS FOR THE TREATMENT OF MYELOMA” (priority 2001, published 2009).

Key:
MM.1S cells [1] = assay: Survival / cell death of MM.1S cells in the presence of dexamethasone and IL-6; assay type: cell-based, human; settings: for inhibition of survival of MM.1S cells: 24 h, dexamethasone 0.1 or 1 μM, PTK787 5 μM, p<0.001
Description: MM.1S cells are incubated for 24 h in 1% RPMI, in the presence or absence of dexamethasone (0.1 or 1 μM), PTK787 (5 μM), IL-6 (20 and 100 ng/ml) and VEGF (50 ng/ml).

MM.1S cells [2] = settings: for inhibition of proliferation of MM.1S cells: 24 h, dexamethasone 0.1 or 1 μM, PTK787 5 μM; for inhibition of proliferation of MM.1S cells / inhibition of MM.1S proliferation with IL-6: p<0.001; for inhibition of MM.1S proliferation without IL-6: comparison arm
Description: MM cells are first starved for 12 h in RPMI-1640 media containing 2% fetal bovine serum, and then plated into 96-well microtiter plates (Costar, Cambridge, Mass.), in the presence of drug or DMSO control. Experiments are also performed in the presence or absence of VEGF165 (R and D Systems). Proliferation is measured by the incorporation of [^3H]-thymidine (NEN Products, Boston, Mass.). Specifically, cells are pulsed with [^3H]-thymidine (0.5 μCi/well) for the last 6 h of 48 h cultures, harvested onto glass filters with an automatic cell harvester (Cambridge Technology, Cambridge, Mass.), and counted using a LKB Betaplate scintillation counter (Wallac, Gaithersburg, Md.). Measurement of cell viability is performed colorimetrically by MTS assay, utilizing the CellTiter96 AQueous One Solution Reagent (Promega, Madison, Wis.). Cells are exposed to the MTS for the last 2 h of 48 h cultures, and absorbance is measured using an ELISA plate reader (Molecular Devices Corp., Sunnyvale, Calif.) at OD of 570 nm.

BMSCs = assay: Viability of BMSCs (trypan blue exclusion and MTS assay); assay type: cell-based, human; settings: with PTK787 in the co-culture system
MM cell lines = assay: Proliferation of MM cell lines and patient tumor cells ([3H]-thymidine uptake); assay type: cell-based, human
Description: FIGS. 2 to 4. Dose-related effect of PTK787 on proliferation of MM cell lines and patient tumor cells. MM.1S, MM.1R, RPMI 8226, patient PCL cells, patient MM cells and HUVE cells were incubated in the presence of 0 (□), 1 (▪), 5 ( ? ), 10 ( ? ) and 20 ( ? ) μM of PTK787. In addition, HUVE cells are also exposed to 0.01 ( ? ), and 0.1 ( ? ) μM of drug. Proliferation is measured as a percentage of 3H-dT uptake relative to standard. The experiments are performed in triplicate, and standard deviation bars are shown.
RPMI 8226 and U266 human MM cell lines are obtained from the American Type Culture Collection (ATCC) of Rockville, Md. Patient derived MM cells are purified from patient BM samples, as described by Y. T. Tai, G. Teoh, Y. Shima, et al in J. Immunol. Methods 235:11, 2000. All human MM cell lines are cultured in RPMI-1640 media (Sigma Chemical, St. Louis, Mo.), containing 10% fetal bovine serum (FBS), 2 mmol/L L-glutamine (L-glut, GIBCO, Grand Island, N.Y.), 100 U/mL penicillin and […] streptomycin (P/S, GIBCO). MM patient cells are ≧95% CD38+, CD45RA−. Bone marrow stromal cells (BMSCs) are prepared from aspirates of MM patients as well as healthy donors as described by D. Gupta, S. Treon, Y. Shima, et al in Leukemia, 2001 and S. Gartner and H. S. Kaplan in Proc. Natl. Acad. Sci. USA 77:4756, 1980. […]

MM.1S cells [3] = assay: Transwell cell migration assay (modified Boyden chamber); assay type: cell-based, human
Description: MM.1S cells are exposed to PTK787 at concentrations 0, 1, 5 and 10 μM for 4 h and then added to the upper chamber of a transwell system. To the lower wells are added either VEGF (□, 10 ng/ml) or CD40 (Δ, 10 ng/ml), and cells are allowed to migrate to the lower chamber over a 5 h period. A lower chamber without any VEGF or CD40 (∘) serves as a control. Migrated cells are counted on a Beckman Coulter counter, and a migration index is obtained as described in Example 2, below. Experiments are performed in triplicate, and standard deviation bars are shown.
The migration assay is performed in a modified Boyden chamber system; using a 24 well plate with 8 μm pore size inserts. Prior to the assay, the upper and lower chambers are pre-coated with fibronectin (10 μg/ml). MM.1S cells are starved in 2% RPMI media for 6 hours prior to assay, then treated with drug or DMSO control for 4 h. MM cells (2×10^6 cells/ml) are then placed into the upper chamber of the transwell system. To the lower chamber is added RPMI (1% FBS), 0 or 10 ng/ml of VEGF165, or an activating MoAb to CD40 (10 ng/ml). The plates are then incubated at 37° C. for 6 h, and then cells in the lower chamber are harvested. The number of live migrated cells is gated and measured using a Beckman Coulter counter. A migration index is calculated to compare migration of cells relative to control. The migration index is defined herein as the percentage of live migrated cells in the sample (with or without drug, and ±VEGF), divided by the percentage of live migrated cells in the control (no drug, no VEGF).

MM.1S cells [4] = assay: Proliferation of MM.1S cells in an adhesion co-culture system with BMSCs; assay type: cell-based, human; settings: 5 μM, compared to controls, p<0.0001
Description: (§1) Co-culturing of MM.1S cells or patient PCL cells with BMSCs increases growth of tumor cells by 1.8 to 2.8-fold, compared to the combination of BMSCs and MM cells alone. Addition of PTK787 (5 μM) to this co-culture system decreases proliferation of both MM.1S cells and patient PCL cells by 75% (p<0.0001), when compared to controls. These effects are observed whether the BMSCs are derived from a normal donor or patient BM.

IL-6 = IL-6 levels in supernatants of MM.1S/BMSC co-culture (ELISA); settings: MM.1S/BMSC co-culture supernatants, 48 h
Description: Cytokine levels are measured in supernatants from the co-culture system described above. VEGF and IL-6 concentrations are measured using commercially available ELISA kits (R&D Systems). Statistical significance of differences is determined using unpaired Student's t-test. The minimal level of significance is considered as p<0.05.
Supernatants obtained from a co-culture of MM.1S cells with BMSCs are isolated at 48 h, and IL-6 levels are measured using ELISA assay.

patient PCL cells = assay: Proliferation of patient PCL cells in an adhesion co-culture system with BMSCs; assay type: cell-based, human; settings: 5 μM, compared to controls, p<0.0001
Description: as §1

[5] = test system: A431, Ls174T, HT-29, PC-3 tumor cells; settings: cited from earlier work
MM.1S cells [6] = assay: Proliferation of MM cells in a modified Boyden chamber transwell co-culture system with BMSCs; assay type: cell-based, human; settings: 5 μM; transwell co-culture with BMSCs without contact; 48 h; p<0.001
Description: Proliferation is measured in a modified Boyden chamber transwell system, using 24-well plates with a […] pore size inserts (Costar). BMSCs (4×10^4 cells/well) are plated in the lower chamber, starved, and incubated in drug as described above. MM cells (20×10^4 cells/ml) are then placed in the upper chamber (insert), and [^3H]-thymidine uptake in the individual chambers is measured at 48 h as described above.
MM.1 S cells are placed in the upper chamber of a transwell co-culture system in order to preclude direct contact between MM cells and BMSCs, but nonetheless allow for diffusion of humoral factors. Despite the lack of contact between the two cell types, uptake of [^3H]-dT by MM.1S cells incubated with BMSCs is increased by 2.2-fold (p<0.0001) at 48 h. […] When PTK787 (5 μM) is used in this co-culture system, it reduces proliferation of MM.1S cells by 62% (p<0.001).

[7] = test system: human carcinomas (A431, Ls174T, HT-29, PC-3); settings: Cancer Res. 60: 2178, 2000, cited from earlier work

SMILES	inhibition of survival of MM.1S cells (MM.1S cells [1]) [%]	inhibition of proliferation of MM.1S cells (MM.1S cells [2]) [%]	inhibition of MM.1S proliferation with IL-6 (MM.1S cells [2]) [%]	inhibition of MM.1S proliferation without IL-6 (MM.1S cells [2]) [%]	viability of BMSCs (BMSCs) [%]	proliferation of MM.1S, Dex-resistant MM.1R, RPMI, patient PCL and patient MM cells (MM cell lines; 0-20 μM PTK787, 3H-dT uptake)	proliferation in MM cell lines with or without VEGF (MM cell lines; PTK787 (1 to 5 μM), presence or absence of VEGF)	cell death of MM.1S cells without IL-6 (MM.1S cells [1]; PTK787 alone, second value of '54% vs. 65%') [%]	cell death of MM.1S cells with IL-6 (MM.1S cells [1]; PTK787 plus IL-6, first value of '54% vs. 65%', p<0.01) [%]	VEGF-induced migration of MM.1S cells (MM.1S cells [3]; 1 μM PTK787, VEGF 10 ng/ml, p=0.002)	baseline and VEGF-induced migration of MM.1S cells (MM.1S cells [3]; 5 and 10 μM PTK787)	migration of MM.1S cells induced by CD40 (MM.1S cells [3]; activating MoAb to CD40 10 ng/ml)	decrease of proliferation of MM.1S cells (MM.1S cells [4]) [%]	decrease of IL-6 concentrations (IL-6) [%]	decrease of proliferation of patient PCL cells (patient PCL cells) [%]	direct effect on tumor cells [5]	reduction of proliferation of MM.1S cells (MM.1S cells [6]) [%]	growth of human carcinomas transplanted orthotopically into mice ([7]; A431, Ls174T, HT-29, PC-3)	vessel density in the tumor tissues [7]
C[C@@H]1C[C@H]2[C@@H]3CCC4=CC(=O)C=C[C@]4(C)[C@@]3(F)[C@@H](O)C[C@]2(C)[C@@]1(O)C(=O)CO [Dexamethasone, dexamethasone, reference compound]	83	58	16	70.5															
Clc1ccc(Nc2nnc(Cc3ccncc3)c3ccccc23)cc1 [PTK787]	46	35	64.7	39.3	95	decreases, in a dose dependent manner	abrogates proliferation both in the presence or absence of VEGF	65	54	reduced to baseline levels	further reduces	does not significantly inhibit	75	70	75	does not have a direct effect	62	inhibits the growth	does reduce vessel density
